Measured values reported in paper PMC4838890, “Dynamic and flexible H3K9me3 bridging via HP1β dimerization establishes a plastic state of condensed chromatin” (Nature Communications, 2016).
Like-named read-outs stand apart in the source and are kept apart here.

What was measured:
[1] = system: H3K9me3 oligonucleosomes; experiment: Scanning force microscopy; type: biochemical, Xenopus laevis; details: 50 mM NaCl
Method: Nucleosomal arrays and recombinant hHP1β were dialyzed against SFM buffer (5 mM triethanolamine (pH7.5), 50 mM NaCl, 0.1 mM EDTA). The recombinant proteins at different concentrations (between 0 and 5 μM) were preincubated with oligonucleosomes at a DNA concentration of 50 ng ml^−1 in SFM buffer for 1 h at 4°C, and the samples were fixed with 0.05% (v/v) fresh glutaraldehyde (Electron Microscopy Sciences, PA, USA) at 4°C overnight. Fixed samples were extensively dialyzed against TEAE buffer (5 mM triethanolamine (pH 7.5), 0.1 mM EDTA). 10 μl of dialyzed sample was deposited on ca. 1 cm^2 of freshly cleaved mica (Plano). After 5 min incubation at RT, the mica was washed with 200 μl of water (high-performance liquid chromatography grade) and air-dried. Images were recorded in air on a Nanoscope V Multi Mode scanning force microscope (Veeco, NY, USA) using an ‘E'-scanner with maximum scan size of 15 × 15 μm and silicon-etched probe tips with a typical spring constant of 40 N m^−1 and a typical resonance frequency of 325 kHz (NSC15, MikroMasch) in tapping mode. […]

[2] = target: H3K9me3 mononucleosome; experiment: SPR, immobilized (symmetric) H3K9me3 mononucleosome; type: binding, Xenopus laevis
Method: SPR measurements were performed on a Biacore 2000 instrument (GE Healthcare, Buckinghamshire, UK) at 298 K in 10 mM triethanolamine (pH 7.5), 150 mM NaCl, 0.1 mM EDTA, 1 mM DTT, 0.005% (v/v) Tween-20. Biotinylated ligands were immobilized on streptavidin-coated sensor chips SA (GE Healthcare, Buckinghamshire, UK). Before immobilization, sensor chips were conditioned as described by the manufacturer. To obtain low surface densities (5–24 RU), 5 nM biotinylated H3 peptide was injected at a low rate of 10 μl min^−1 using varying contact times. High surface densities (>700 RU) were prepared by injecting […] peptide (10 μl min^−1) until the SA surface was saturated. Peptide-containing chips were regenerated by applying three short pulses of 0.05% (w/v) SDS followed by an injection of 1.5 M NaCl for baseline stabilization. For binding assays, hHP1β proteins were injected at […] (serial twofold dilutions) for 2 min (30 μl/min). Dissociation was recorded for up to 5 min. A streptavidin surface without ligands served as reference. In addition, blank runs were performed for double referencing. Data evaluation was performed by steady-state analysis assuming a Langmuir 1:1 binding model using BIAevaluation 4.1 and Prism 5.04 (GraphPad, CA, USA) software. Binding to the unmodified peptides was analysed with maximum binding (RUmax) set to the corresponding values obtained with the modified peptides.
Figure S8 Hiragami-Hamada et al. […]
Supplementary Figure 8: hHP1β binds nucleosomes as dimer. […]
RU. Injection series are from 0.024 to 50 µM protein concentration. […]
(f) SPR response traces of injection of hHP1β WT into Biacore cells containing biotinylated, symmetrically modified H3K9me3-mononucleosomes (i.e. both H3-tails carry H3K9me3) immobilized […]
(also on this page, place not known: dimer . hHP1 β H3K9me3 - se nsory ( b) site -specific ( b) hHP1 β ( d) site -specific hHP1 β modifi ed H3K9me3 -mononucleosomes H3 -tails -30 -50 -8 -4 200 -10 110 -50 -10 -30 [μM] [μM] -10 190 150 -10 110 200 -10 110 μl/min μl/min μl/min -50 150 response [RU] response [RU] response [RU] response [RU] response [RU] [μM] 10 50 response [RU]40 0 0 [μM] 10 30 50 response [RU] 40 0 0 40 [μM] 10 30 50 response [RU] 140 40 0 120 0 40 response [RU] response [RU] response [RU] Kd Kd μM Kd μM 0.8 0.6 0.4 0.2 0 1 1.0 0.8 0.6 0.4 0.2 0.0 mass fraction) […]
on a sensory chip via covalently coated streptavidin. Immobilized mononucleosome was at 950 RU.
Injection series are from 0.024 to 50 µM protein concentration.
(g) Blot of signal over concentration of the titration in (f) to deduce an apparent Kd value. For reference, fitting of the data to a one and two site- specific binding model is shown.
(h) Same analysis as in (f) but with hHP1β I161A. […]

[3] = SPR titration 0.024 to 50 µM, symmetrically modified mononucleosome at 950 RU, one site-specific binding, read-out: apparent Kd (Supplementary Fig. 8g,i)
[4] = SPR, 150 mM NaCl, pH 7.5, 298 K, steady-state, WT value based on fitting to a one site-specific binding model, read-out: Kd (apparent dissociation constant)

Substance	frequency of condensed chromatin fibres and large clusters ([1]; H3K9me3 chromatin, n>50)	Kd [2, 3]	Kd [2, 4]	structures observed by SFM ([1]; 0.5 μM protein)	structures observed by SFM ([1]; 5 μM protein)	frequency of condensed chromatin fibres and large clusters, H3K9me0 ([1]; H3K9me0 chromatin, n>50)
hHP1β I161A: CSD point mutant of hHP1β incapable of dimerization	much lower	4300 nM	5200 ± 600 nM	–	–	–
hHP1β WT: recombinant human heterochromatin protein 1β (GenBank NM_001127228), 185 aa	–	920 nM	1000 ± 200 nM	individual but highly condensed H3K9me3 chromatin species	larger clusters that must contain multiple oligonucleosomes were visible	much lower for H3K9me0 chromatin with hHP1β WT
